From PubChem BioAssay (NCI)
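Exposure lasted 48 hours, with cells grown in 96-well plates and compounds tested at five concentrations. TGI is the concentration that stops growth completely.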

Legend:
Experiment in all cases: DTP human tumour cell line panel, 48 h
786-0 renal = system: 786-0 renal
A498 renal = system: A498 renal
A549 NSCLC = system: A549 NSCLC
ACHN renal = system: ACHN renal
BT-549 breast = system: BT-549 breast
CAKI-1 renal = system: CAKI-1 renal
CCRF-CEM leukemia = system: CCRF-CEM leukemia
COLO 205 colon = system: COLO 205 colon
DU-145 prostate = system: DU-145 prostate
EKVX NSCLC = system: EKVX NSCLC
HCC-2998 colon = system: HCC-2998 colon
HCT-116 colon = system: HCT-116 colon
HCT-15 colon = system: HCT-15 colon
HL-60(TB) leukemia = system: HL-60(TB) leukemia
HOP-62 NSCLC = system: HOP-62 NSCLC
HOP-92 NSCLC = system: HOP-92 NSCLC
HS 578T breast = system: HS 578T breast
HT29 colon = system: HT29 colon
IGROV1 ovarian = system: IGROV1 ovarian
K-562 leukemia = system: K-562 leukemia
KM12 colon = system: KM12 colon
LOX IMVI melanoma = system: LOX IMVI melanoma
M14 melanoma = system: M14 melanoma
MALME-3M melanoma = system: MALME-3M melanoma
MCF7 breast = system: MCF7 breast
MDA-MB-435 = system: MDA-MB-435
MDA-N = system: MDA-N
MOLT-4 leukemia = system: MOLT-4 leukemia
NCI-H226 lung = system: NCI-H226 lung
NCI-H23 lung = system: NCI-H23 lung
NCI-H460 lung = system: NCI-H460 lung
NCI-H522 lung = system: NCI-H522 lung
NCI/ADR-RES ovarian = system: NCI/ADR-RES ovarian
OVCAR-3 ovarian = system: OVCAR-3 ovarian
OVCAR-4 ovarian = system: OVCAR-4 ovarian
OVCAR-5 ovarian = system: OVCAR-5 ovarian
OVCAR-8 ovarian = system: OVCAR-8 ovarian
PC-3 prostate = system: PC-3 prostate
RPMI-8226 leukemia = system: RPMI-8226 leukemia
RXF 393 renal = system: RXF 393 renal
SF-268 CNS = system: SF-268 CNS
SF-295 CNS = system: SF-295 CNS
SF-539 CNS = system: SF-539 CNS
SK-MEL-2 melanoma = system: SK-MEL-2 melanoma
SK-MEL-28 melanoma = system: SK-MEL-28 melanoma
SK-MEL-5 melanoma = system: SK-MEL-5 melanoma
SK-OV-3 ovarian = system: SK-OV-3 ovarian
SN12C renal = system: SN12C renal
SNB-19 CNS = system: SNB-19 CNS
SNB-75 CNS = system: SNB-75 CNS
SR leukemia = system: SR leukemia
SW-620 colon = system: SW-620 colon
T-47D breast = system: T-47D breast
TK-10 renal = system: TK-10 renal
U251 CNS = system: U251 CNS
UACC-257 melanoma = system: UACC-257 melanoma
UACC-62 melanoma = system: UACC-62 melanoma
UO-31 renal = system: UO-31 renal
MDA-MB-231 breast = system: MDA-MB-231 breast

Compound: CCOC(=O)Cn1nnc2ccc(Nc3nc4ccccc4nc3-c3ccccc3)cc21
- TGI (786-0 renal): > 100 µM
- TGI (A498 renal): > 100 µM
- TGI (A549 NSCLC): > 100 µM
- TGI (ACHN renal): > 100 µM
- TGI (BT-549 breast): > 100 µM
- TGI (CAKI-1 renal): > 100 µM
- TGI (CCRF-CEM leukemia): > 100 µM
- TGI (COLO 205 colon): > 100 µM
- TGI (DU-145 prostate): 31.8 µM
- TGI (EKVX NSCLC): > 100 µM
- TGI (HCC-2998 colon): 66.4 µM
- TGI (HCT-116 colon): > 100 µM
- TGI (HCT-15 colon): > 100 µM
- TGI (HL-60(TB) leukemia): > 100 µM
- TGI (HOP-62 NSCLC): > 100 µM
- TGI (HOP-92 NSCLC): > 100 µM
- TGI (HS 578T breast): > 100 µM
- TGI (HT29 colon): > 100 µM
- TGI (IGROV1 ovarian): > 100 µM
- TGI (K-562 leukemia): > 100 µM
- TGI (KM12 colon): > 100 µM
- TGI (LOX IMVI melanoma): > 100 µM
- TGI (M14 melanoma): > 100 µM
- TGI (MALME-3M melanoma): > 100 µM
- TGI (MCF7 breast): > 100 µM
- TGI (MDA-MB-435): > 100 µM
- TGI (MDA-N): > 100 µM
- TGI (MOLT-4 leukemia): > 100 µM
- TGI (NCI-H226 lung): > 100 µM
- TGI (NCI-H23 lung): > 100 µM
- TGI (NCI-H460 lung): > 100 µM
- TGI (NCI-H522 lung): > 100 µM
- TGI (NCI/ADR-RES ovarian): > 100 µM
- TGI (OVCAR-3 ovarian): > 100 µM
- TGI (OVCAR-4 ovarian): > 100 µM
- TGI (OVCAR-5 ovarian): > 100 µM
- TGI (OVCAR-8 ovarian): > 100 µM
- TGI (PC-3 prostate): > 100 µM
- TGI (RPMI-8226 leukemia): > 100 µM
- TGI (RXF 393 renal): > 100 µM
- TGI (SF-268 CNS): > 100 µM
- TGI (SF-295 CNS): > 100 µM
- TGI (SF-539 CNS): > 100 µM
- TGI (SK-MEL-2 melanoma): > 100 µM
- TGI (SK-MEL-28 melanoma): > 100 µM
- TGI (SK-MEL-5 melanoma): > 100 µM
- TGI (SK-OV-3 ovarian): > 100 µM
- TGI (SN12C renal): > 100 µM
- TGI (SNB-19 CNS): > 100 µM
- TGI (SNB-75 CNS): 99.1 µM
- TGI (SR leukemia): > 100 µM
- TGI (SW-620 colon): > 100 µM
- TGI (T-47D breast): > 100 µM
- TGI (TK-10 renal): 62.5 µM
- TGI (U251 CNS): > 100 µM
- TGI (UACC-257 melanoma): > 100 µM
- TGI (UACC-62 melanoma): > 100 µM
- TGI (UO-31 renal): 14.5 µM

Compound: O=c1[nH]c(Nc2nc3ccccc3[nH]2)nc(O)c1Cc1ccccc1
- TGI (786-0 renal): > 100 µM
- TGI (A498 renal): > 100 µM
- TGI (A549 NSCLC): > 100 µM
- TGI (ACHN renal): > 100 µM
- TGI (BT-549 breast): > 100 µM
- TGI (CAKI-1 renal): > 100 µM
- TGI (CCRF-CEM leukemia): > 100 µM
- TGI (COLO 205 colon): > 100 µM
- TGI (DU-145 prostate): > 100 µM
- TGI (EKVX NSCLC): > 100 µM
- TGI (HCT-116 colon): > 100 µM
- TGI (HCT-15 colon): > 100 µM
- TGI (HL-60(TB) leukemia): > 100 µM
- TGI (HOP-92 NSCLC): 63 µM
- TGI (HS 578T breast): > 100 µM
- TGI (HT29 colon): > 100 µM
- TGI (IGROV1 ovarian): > 100 µM
- TGI (K-562 leukemia): > 100 µM
- TGI (KM12 colon): > 100 µM
- TGI (M14 melanoma): > 100 µM
- TGI (MALME-3M melanoma): > 100 µM
- TGI (MDA-MB-231 breast): > 100 µM
- TGI (MDA-MB-435): > 100 µM
- TGI (MDA-N): > 100 µM
- TGI (MOLT-4 leukemia): > 100 µM
- TGI (NCI-H226 lung): > 100 µM
- TGI (NCI-H23 lung): > 100 µM
- TGI (NCI-H460 lung): > 100 µM
- TGI (NCI-H522 lung): > 100 µM
- TGI (NCI/ADR-RES ovarian): > 100 µM
- TGI (OVCAR-4 ovarian): > 100 µM
- TGI (OVCAR-8 ovarian): > 100 µM
- TGI (PC-3 prostate): > 100 µM
- TGI (RPMI-8226 leukemia): > 100 µM
- TGI (SF-268 CNS): > 100 µM
- TGI (SF-539 CNS): > 100 µM
- TGI (SK-MEL-2 melanoma): > 100 µM
- TGI (SK-MEL-28 melanoma): > 100 µM
- TGI (SK-MEL-5 melanoma): > 100 µM
- TGI (SN12C renal): > 100 µM
- TGI (SNB-19 CNS): > 100 µM
- TGI (SNB-75 CNS): 86.4 µM
- TGI (SR leukemia): > 100 µM
- TGI (SW-620 colon): > 100 µM
- TGI (T-47D breast): > 100 µM
- TGI (TK-10 renal): > 100 µM
- TGI (U251 CNS): > 100 µM
- TGI (UACC-257 melanoma): > 100 µM
- TGI (UACC-62 melanoma): > 100 µM
- TGI (UO-31 renal): > 100 µM
